No end group written: not given here.
Columns and labels:
HD11 cells = assay: Neutralization of LPS-induced interleukin-1β transcription in HD11 cells (real time PCR); type: cell-based, chicken; conditions: 20 μM peptide pre-incubated with 50 ng/ml LPS; 4 h
Protocol: (§1) FIG. 11A-11B—Neutralization of lipopolysaccharide-induced interleukin-1β induction and nitric oxide production in HD11 cells by CMAP27 derived peptides. HD11 cells were seeded in 96 wells tissue culture treated plates (2×10^5 cell/mL) in RPMI-1640/10% FCS. Final concentrations of 50 ng/ml LPS were pre-incubated with or without 20 μM peptide for 30 min at 37° C. (5% CO2), applied to the cells and incubated for 4 h and 24 h. A) Transcription levels of interleukin-1 were determined by real time PCR (4 h only). B) Supernatants were collected for the determination of nitric oxide production (24 h incubations only) using the Griess assay. Significance levels: *P<0.05, **P<0.01, ***P<0.001. Data represents means±SEM from 3-4 independent experiments.
as §1, with “FIG. 12A-12B—Substitution” for “FIG. 11A-11B—Neutralization”, “of phenylalanine residues by tryptophan enhances the” for “of lipopolysaccharide-induced interleukin-1β induction and nitric oxide production”, “in vitro LPS neutralization capacity of” for “in HD11 cells by”, “h or” for “h and”
HD11 cells were seeded in 96 wells tissue culture treated plates (2×10^5 cell/mL) in RPMI-1640/10% FCS. Final concentrations of 50 ng/ml Salmonella minnesota LPS were pre-incubated with or without 20 μM peptide for 30 min at 37° C. (5% CO2), applied to the cells and incubated for 4 h and 24 h. A) Transcription levels of interleukin-1 were determined by real time PCR (4 h only). B) Supernatants were collected for the determination of nitric oxide production (24 h incubations only) using the Griess assay.

[1] = type: in vivo, chicken (Ross308 broilers); conditions: for bodyweight at 7 days post hatch (D7): 1 mg/kg in ovo at embryonic day 18, compared to vehicle treated birds; for HATCHABILITY: in vivo, 1 mg/kg
Protocol: FIG. 8A-8B—Bodyweights of Ross308 broilers assessed at hatch (D0) (FIG. 8A) and at 7 days after hatch (D7) (FIG. 8B). Birds were injected at embryonic day 18 with 1 mg/kg peptide or vehicle.
DCATH2 peptide and truncated analogs D-CMAP(1-21) and D-CMAP(4-21) were suspended in a Cholesterol/PBS formulation. Ross308 eggs were injected in the amnion fluid at 18 days of embryonic age with 100 μl of peptide containing suspension and returned to an egg incubator to hatch (˜ at 21 days embryonic age). Both control groups were injected in the amnion fluid with cholesterol/PBS formulation. The 1 mg/kg bodyweight dose of peptide was calculated based on an embryo body weight of 22 g. After hatch, all birds were weighed individually (D0) and transferred into isolator units per treatment (n=120/group). Birds were fed ad libitum and at 7 days after hatch (D7) bodyweights of individual birds were assessed.

[2] = test system: avian pathogenic Salmonella enteritidis pt13a; assay: In ovo peptide treatment, subcutaneous Salmonella enteritidis challenge of broiler chicks; type: in vivo, chicken (Ross308 broilers)
From the text: FIG. 1A-1B—Differential and total counts of chicken peripheral blood leukocytes at 2 days p.i. after subcutaneous injection with 10^6 CFU of avian pathogenic Salmonella enteritis pt13a. A) total counts. B) differential counts.
FIG. 2A-2B—Mortality after subcutaneous injection with 10^6 CFU of avian pathogenic Salmonella enteritis pt13a. A) Survival curves of peptide treated and nontreated birds during 7 days post infection. B) Reduction of mortality (%) relative to untreated infected birds (+ control).
(§2) FIG. 3A-3B—Lesion scores determined at 7 days p.i. after subcutaneous injection with 10^6 CFU of avian pathogenic Salmonella enteritis pt13a. Left and right thoracic air sacs (respiratory tract), liver and heart (systemic infection) were separately evaluated using a scoring system: 0=no lesions, 1=mild lesions, 2=moderate lesions and 3=severe lesions. The mean lesion scores (MLS) were calculated as the sum of lesion scores per bird. A) The percentage of salmonellosis positive birds (MLS>1) and the reduction of salmonellosis positive birds relative to untreated infected birds. B) The average lesion scores relative to untreated infected birds.
DCATH2 peptide (the full D-amino acid analog of CMAP1-26) was suspended in a cholesterol/PBS formulation. Ross308 eggs were injected in the amnion fluid at 18 days of embryonic age with 100 μl of DCATH2 containing suspension and returned to an egg incubator to hatch (˜ at 21 days embryonic age). Both control groups were injected in the amnion fluid with cholesterol/PBS formulation. The 1 mg/kg bodyweight dose of peptide was calculated based on an embryo body weight of 22 g. After hatch, birds were transferred into 4 pens per treatment (n=40/group). Three days after hatch, all birds except the negative control were subcutaneously inoculated with an avian pathogenic Salmonella enteritidis pt13a strain at a dose of 5×10^6 CFU per bird. Two day after challenge, 12 birds per group were sacrificed and used to take samples for blood and organ analysis. Blood samples were taken to determine total leukocyte counts and leukocyte differentiation. During the 7 day challenge period mortality was registered per day. At the end of the challenge period at 7 days post infection, all remaining birds were sacrificed and in the left and right side thoracic air sacs, liver and heart were examined for lesion scores.

[3] = test system: avian pathogenic Escherichia coli 506; assay: In ovo peptide treatment, intratracheal E. coli challenge of broiler chicks; type: in vivo, chicken (Ross308 broilers)
From the text: FIG. 4A-4B—Differential and total counts of chicken peripheral blood leukocytes at 2 days p.i. after intra-tracheal injection with 10^6 CFU of avian pathogenic E. coli 506. A) total counts. B) differential counts.
FIG. 5A-5B—Mortality after intra-tracheal injection with 10^6 CFU of avian pathogenic E. coli 506. A) Survival curves of peptide treated and nontreated birds during 7 days post infection. B) Reduction of mortality (%) relative to untreated infected birds.
as §2, with “6A-6B—Lesion” for “3A-3B—Lesion”, “intratracheal” for “subcutaneous”, “E. coli 506.” for “Salmonella enteritis pt13a.”, “colibacillosis” for “salmonellosis”
FIG. 7—Thoracic air sac counts 7 days after intratracheal injection with 10^6 CFU of avian pathogenic E. coli 506.
DCATH2 peptide was suspended in a Cholesterol/PBS formulation. Ross308 eggs were injected in the amnion fluid at 18 days of embryonic age with 100 μl of DCATH2 containing suspension and returned to an egg incubator to hatch (˜ at 21 days embryonic age). Both control groups were injected in the amnion fluid with cholesterol/PBS formulation. The 1 mg/kg bodyweight dose of DCATH2 peptide was calculated based on an embryo body weight of 22 g. After hatch, birds were transferred into isolator units per treatment (n=54/group). Three days after hatch, all birds except the negative control were intratracheally inoculated with an avian pathogenic Escherichia coli 506 strain (UU strain) at a dose of 1×10^6 CFU per bird. Two day after challenge, 13 birds per group were sacrificed and used to take samples for blood and organ analysis. Blood samples were taken to determine total leukocyte counts and leukocyte differentiation. During the 7 day challenge period mortality was registered per day. At the end of the challenge period at 7 days post infection, all remaining birds were sacrificed and in the left and right side thoracic air sacs, liver and heart were examined for lesion scores.

[4] = 7 days p.i., 1 mg/kg in ovo, surviving birds
[5] = 2 days p.i., 1 mg/kg in ovo, compared to untreated non-infected birds
[6] = 2 days p.i., compared to non-treated, non-infected animals

With “CMAP10-21-NH2: N-terminally truncated variant of CMAP1-21 (RRFRPKVTITIQ-NH2)” the “LPS-neutralizing activity (block of LPS-induced IL-1β expression, in words)” value (HD11 cells) was “lack LPS-neutralizing activity”.
With “Phe/Trp substituted analog of CMAP7-21-NH2: CMAP7-21-NH2 with phenylalanine substituted by tryptophan (RKIRRWRPKVTITIQ-NH2)” the “LPS-induced IL-1β expression blocked” value (HD11 cells) was 86.3%.
With “Phe/Trp substituted analog of CMAP10-21-NH2: CMAP10-21-NH2 with phenylalanine substituted by tryptophan (RRWRPKVTITIQ-NH2)” the “LPS-induced IL-1β expression blocked” value (HD11 cells) was 71.9%.
For RFGRFLREIRRFRPKVTITIQ-NH2 [D-C(1-21)], the “bodyweight at 7 days post hatch (D7)” value [1] was “significant higher” and the HATCHABILITY [1] was 95%.
In the case of RFGRFLREIRRFRPKVTITIQGSARF-NH2 [DCATH2], the delay of mortality ([2]; 1 mg/kg in ovo at embryonic day 18, Salmonella challenge 3 days after hatch) is reported as “up to 3 days p.i”, the “absolute number of peripheral blood heterophils” value ([2]; 2 days p.i., 1 mg/kg in ovo, compared to non-infected birds) is reported as “significantly higher” and the “decrease of severity of lesions in salmonellosis positive birds” value ([2]; 7 days p.i., 1 mg/kg in ovo) is reported as 69%. For the same substance, the “reduction of mortality relative to untreated infected birds” value ([2]; 7 days p.i., 1 mg/kg in ovo) was 50%, the “reduction of salmonellosis positive birds (mean lesion score>1) relative to untreated infected birds” value [2, 4] was 53% and the “absolute number of peripheral blood heterophils” value [3, 5] was “significantly higher”. The “absolute number of peripheral blood leukocytes” value [3, 5] was “significantly higher”, the “absolute number of lymphocytes” value [3, 6] was “No differences” and the “absolute number of monocytes” value [3, 6] was “No differences”. The “reduction of mortality relative to untreated infected birds” value ([3]; 7 days p.i., 1 mg/kg in ovo) was 30%, the “reduction of severity of colibacillosis-related lesions” value ([3]; 7 days p.i., 1 mg/kg in ovo) was 64% and the “reduction of colibacillosis positive birds (MLS>1) relative to untreated infected birds” value [3, 4] was 52%. For the same substance, the “reduction of air sac colonization by E. coli” value ([3]; 7 days p.i., 1 mg/kg in ovo, thoracic air sac counts) was 93%, the “bodyweight at 7 days post hatch (D7)” value [1] was “significant higher” and the HATCHABILITY [1] was 97%.
With “RFGRFLRKIRRFRPKVTITIQGSARFG (CMAP27) [CATH2, in b91 probably DCATH2 is meant]” the “reduction of severity of colibacillosis-related lesions” value ([3]; 7 days p.i., 1 mg/kg in ovo) was 64%.
For RFLREIRRFRPKVTITIQ-NH2 [D-C(4-21)], the “bodyweight at 7 days post hatch (D7)” value [1] was “significant higher” and the HATCHABILITY [1] was 94%.

— patent US11603391B2, “CATH2 derivatives” (Universiteit Utrecht Holding B.V., priority 2014, dated 2023)
